The values that follow are results of earlier work, collected in patent publication US7098239B2, “Dipeptidyl peptidase inhibitors for the treatment of diabetes” (Merck & Co., Inc, priority 2001, dated 2006).

One data set deals with cardiac allograft. The note with it: rats; survival doubled from day 7 to day 14.
The test system of another data set is hematopoiesis. The note with it: mouse model of cyclophosphamide-induced neutropenia.
Another data set deals with T1, DP-IV (Homo sapiens, UniProt P27487).
T1 construct: GRF is rapidly degraded in plasma to GRF[3–44]
T1 sequence (P27487 39-766 limits assumed): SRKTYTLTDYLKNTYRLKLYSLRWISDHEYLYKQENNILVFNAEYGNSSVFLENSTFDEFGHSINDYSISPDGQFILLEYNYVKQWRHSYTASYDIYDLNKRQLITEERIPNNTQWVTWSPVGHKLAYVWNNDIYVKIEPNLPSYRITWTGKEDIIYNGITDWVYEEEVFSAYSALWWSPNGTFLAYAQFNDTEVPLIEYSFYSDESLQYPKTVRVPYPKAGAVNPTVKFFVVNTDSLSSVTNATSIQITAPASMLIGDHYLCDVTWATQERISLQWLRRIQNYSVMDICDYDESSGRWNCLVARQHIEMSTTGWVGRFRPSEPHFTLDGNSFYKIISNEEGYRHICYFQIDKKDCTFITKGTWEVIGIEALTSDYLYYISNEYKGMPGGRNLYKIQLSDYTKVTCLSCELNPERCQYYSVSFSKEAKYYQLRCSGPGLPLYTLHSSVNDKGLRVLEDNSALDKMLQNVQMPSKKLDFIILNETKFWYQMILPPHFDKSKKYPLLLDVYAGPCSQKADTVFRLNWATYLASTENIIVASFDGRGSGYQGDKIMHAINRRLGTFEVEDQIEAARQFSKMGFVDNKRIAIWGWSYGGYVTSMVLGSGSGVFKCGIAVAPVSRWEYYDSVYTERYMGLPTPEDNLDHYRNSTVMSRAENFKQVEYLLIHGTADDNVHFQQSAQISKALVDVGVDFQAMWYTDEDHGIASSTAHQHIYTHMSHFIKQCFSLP

With `CC(C)N1CCC(c2ccccc2)(c2ccccc2)CC1` [Prodipine, Pro-Pro-diphenyl-phosphonate], in the data set with cardiac allograft, the cardiac allograft survival is on record as 14 day.

As for `CC(C)[C@H](N)C(=O)N1CCC[C@H]1B(O)O` [Val-Boro-Pro], the hematopoiesis result in the data set on hematopoiesis is “stimulates hematopoiesis”.

On to diprotin A, for which, on DP-IV, the “degradation of GRF in plasma to GRF[3-44]” value was “prevented”.
